Laboratory results as given in publication PMC12113707, “Microwave Assisted Synthesis of Antioxidant Dihydro-Pyrazole Hybrids as Possible Lipoxygenase Inhibitors” (Molecules, 2025).

Columns and labels:
[1] = molecular target: T1, soybean lipoxygenase (SLOX-1) (Glycine max, UniProt P08170); assay: Inhibition of soybean lipoxygenase in vitro; format: biochemical; details: pH 9, sodium linoleate substrate; for inhibition at 100 µM: read-out: LOX% Inhibition, 100 μM (±SD); for IC50: read-out: LOX IC50 (μM) (±SD)
T1 construct: 200 μL of plant-derived lipoxygenase solution (1:9 × 10^−4 w/v, in saline); purchased Sigma Chemical, Co; host or cells: soybean (plant-derived)
T1 sequence (P08170 1-839): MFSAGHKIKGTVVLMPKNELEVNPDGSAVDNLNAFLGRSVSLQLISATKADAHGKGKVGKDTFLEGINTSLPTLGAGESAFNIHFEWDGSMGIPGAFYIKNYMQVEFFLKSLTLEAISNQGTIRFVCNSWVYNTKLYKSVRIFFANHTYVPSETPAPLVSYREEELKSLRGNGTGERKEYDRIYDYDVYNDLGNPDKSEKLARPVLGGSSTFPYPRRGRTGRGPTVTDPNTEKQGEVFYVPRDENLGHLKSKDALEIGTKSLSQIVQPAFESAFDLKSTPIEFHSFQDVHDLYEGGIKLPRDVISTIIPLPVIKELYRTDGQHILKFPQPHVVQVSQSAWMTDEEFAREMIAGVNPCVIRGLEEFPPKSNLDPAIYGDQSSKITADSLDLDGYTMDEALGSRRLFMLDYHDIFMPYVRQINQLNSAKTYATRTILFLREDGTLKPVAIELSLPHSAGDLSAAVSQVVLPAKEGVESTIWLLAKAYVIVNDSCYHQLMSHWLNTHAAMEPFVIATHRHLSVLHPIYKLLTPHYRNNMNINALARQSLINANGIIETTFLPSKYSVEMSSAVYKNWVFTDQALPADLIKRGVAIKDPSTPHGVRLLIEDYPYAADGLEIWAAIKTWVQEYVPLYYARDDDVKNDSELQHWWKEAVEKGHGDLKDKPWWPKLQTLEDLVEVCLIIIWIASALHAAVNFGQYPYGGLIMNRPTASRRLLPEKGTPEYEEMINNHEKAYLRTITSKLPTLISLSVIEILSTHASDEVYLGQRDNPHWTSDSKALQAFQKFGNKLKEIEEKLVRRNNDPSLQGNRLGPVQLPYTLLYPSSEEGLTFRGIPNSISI
Description: Soybean lipoxygenase SLOX-1 at pH 9 is used in vitro. During this assay linoleic acid sodium salt is converted to the corresponding 13-hydroperoxide. The reaction is recorded photometrically at 234 nm using the UV-based enzyme assay. […] It is known that soybean LOX inhibitory activity induced by NSAIDs is qualitatively quite similar to the inhibition observed on the rat mast cells LOX and this assay may be used as a qualitative or semi-quantitative screen for such activity.
To a quartz cell, add 790 μL of Tris-HCl pH = 9.0 buffer, 200 μL of plant-derived lipoxygenase solution (1:9 × 10^−4 w/v, in saline), 10 μL of the test compound solution and 100 μL of sodium linoleate solution (3 mM concentration). The absorbance was measured at 234 nm, where the change in absorbance due to the conversion of linoleic acid to […] was recorded. A solution of 790 μL of Tris-HCl pH = 9.0 buffer, 200 μL of a plant-derived lipoxygenase solution (1:9 × 10^−4 w/v, in saline), 10 μL of DMSO and 100 μL of sodium linoleate solution (3 mM concentration) was used as a control.

[2] = Experimental lipophilicity RM by reverse phase thin layer chromatography (RP-TLC); format: physicochemical; details: methanol-water mobile phase
Description: Lipophilicity is a main physicochemical parameter for bioactive molecules, linking solubility, ligand-target binding interactions, membrane permeability absorption, distribution, bioavailability, metabolism, elimination and toxicological effects (ADMET), playing an important role in biological activity. The experimental values of lipophilicity RM were determined by reverse phase thin layer chromatography. For the experimental determination of lipophilicity the hydrophilic-lipid phase system is a mixture of methanol- water (90/10%). The theoretical lipophilicity values are determined by the Bioloom program (http://biobyte.com/bb/prod/bioloom.html, accessed on 8 April 2024) (Table 1). According to the calculated clog P values, the most lipophilic compounds are 3c, 3d and 3f while the less lipophilic ones are compounds 5a and 5b.
Melting points were determined on a MEL-Temp II (Lab. Devices, Holliston, MA, USA). In vitro tests were carried out using a UV-Vis spectra and recorded on a Perkin-Elmer 554 double-beam spectrophotometer (Perkin-Elmer Corporation Ltd., Lane Beaconsfield, Bucks, UK). Infrared spectra (KBr pellets) were recorded with Perkin-Elmer 597 spectrophotometer (Perkin-Elmer Corporation Ltd., Lane Beaconsfield, Bucks, UK). The ^1H […] Magnetic Resonance (^1H-NMR) spectra were acquired on an Agilent 500/54 (DD2) at 500 MHz in CDCl3 using tetramethylsilane as an internal standard. Agilent 500/54 (DD2) ^13C NMR spectra were acquired at 125 MHz in CDCl3 solutions with tetramethylsilane serving as an internal reference. Coupling constants J are expressed in Hz, and chemical shifts are reported in ppm. Thermo Fisher Scientific Inc., Waltham, MA, USA, used MeOH as the solvent to calculate mass spectra using an LC-PDA-MS Thermo Finnigan system (LC Pump Plus, Autosampler, Surveyor PDA Plus Detector) interfaced with an ESI MSQ Plus (Thermo Finnigan). Thin-layer chromatography using 5554 F254 Silica gel/TLC cards (Merck and Fluka Chemie GmbH Buchs, Steinheim, Switzerland) was used to monitor the reaction progress. Silica gel 60 F254 plates with a diameter of 2 mm were utilized for preparative thin layer chromatography (prep TLC) by Merck KgaA (ICH078057). Merck (20 × 20 cm) plates were used for the experimental assessment of the lipophilicity using reverse phase thin-layer chromatography (RP-TLC) TLC-Silica gel 60 F254 DC Kieselgel.
In this experiment, TLC silica gel 60 F254 1.05715.0001 commercial glass plates from Merck were used. The plates were first immersed in a 5% v/v solution of liquid paraffin in petroleum ether and left for 90 s to become completely impregnated with the stable lipophilic phase. They were then activated by standing for 30 min in an oven at 40 °C and kept there until the time of use. A 70% v/v MeOH/H2O mixture was used as the mobile phase. The mobile phase was saturated with a few drops of liquid paraffin before being used. The spots of the compounds were placed on the plate at a distance of 2 cm from the edges of the plate and also from each other. The development of the spots on the plates was carried out in closed chromatography chambers where the atmosphere is saturated with the mobile phase at room temperature. At the end of development, the solvent-formed front was marked and the plates are dried at 80 °C for about 20–30 min. The appearance of the spots was made under an ultraviolet light lamp. The Rf values were the average of 5–6 measurements for each compound and assuming that the compounds will have been rotated to different positions on the plates. The RM values were calculated from the corresponding Rf values according to the equation [67].RM = log [(1/Rf) − 1](1)

[3] = Inhibition of AAPH-induced linoleic acid peroxidation; details: 37 °C, 234 nm
Description: The ability of the compounds to inhibit AAPH-induced peroxidation of linoleic acid is another assay to investigate the antioxidant properties of the compounds. Azo compounds such as 2,2′-azobis dihydrochloride (2-amidinopropane) (AAPH) are capable of generating free radicals through spontaneous decomposition at 37 °C. The R- radicals react immediately with air-oxygen to produce peroxy radicals. AAPH was therefore used as the radical initiator and sodium linoleate as substrate subjected to peroxidation. Measurements were carried out at 234 nm using a UV/V is spectrophotometer. Dichalcone 1i substituted with two phenyl groups presents the lowest lipophilicity. […] Therefore, hydrophilic substituents offer an increase in activity.
The interaction of free radicals with cell membrane lipids induces free radical chain reactions, a process called lipid peroxidation. 930 μL of a phosphate buffer solution (0.05 M, pH = 7.4), 10 μL of the sodium linolate solution (16 mM in a buffer solution of Tris-HCl pH = 9) and 10 μL of the tested compounds (stock solutions 100 μΜ) were mixed and the oxidative procedure started after the addition of 50 μL AAPH at 37 °C under air conditions. The conjugated diene’s absorbance was measured at 234 nm at a thermostable spectrophotometer (37 °C) according to previous publication.

[4] = Interaction with the stable free radical DPPH (reducing activity); details: 517 nm
Description: In general, the compounds present moderate to good antioxidant activity. It seems that the dibenzylacetones present satisfactory antioxidant activity compared to the hybrids at 60 min (1b, 1d and 1f).
The tested compounds (0.1 mM final concentration) dissolved in DMSO were incubated with a solution of DPPH in absolute ethanol in absence of light. The absorbance at 20 and 60 min at 517 nm was recorded at room temperature. NDGA was used as the reference compound.

O=C(/C=C/c1ccc(Br)cc1)/C=C/c1ccc(Br)cc1 [Compound 1c, (1E,4E)-1,5-bis(4-bromophenyl)-1,4-pentadien-3-oneone]
inhibition at 100 µM [1]: 28 ± 0.6%
RM ± SD [2]: 0.65 ± 0.034
AAPH% Inhibition, 100 μM (±SD) [3]: 61 ± 0.5%
RA%, 100 μM, 60 min (±SD) [4]: 44 ± 1.6%

O=C(/C=C/c1ccc(Cl)cc1)/C=C/c1ccc(Cl)cc1 [Compound 1d, (1E,4E)-1,5-bis(4-chlorophenyl)-1,4-pentadien-3-one]
inhibition at 100 µM [1]: 38 ± 0.7%
RM ± SD [2]: 0.50 ± 0.042
AAPH% Inhibition, 100 μM (±SD) [3]: 53 ± 0.6%
RA%, 100 μM, 20 min (±SD) [4]: 86 ± 4.5%
RA%, 100 μM, 60 min (±SD) [4]: 95 ± 4.8%

CN(C)c1ccc(/C=C/C(=O)/C=C/c2ccc(N(C)C)cc2)cc1 [Compound 1e, (1E,4E)-1,5-bis(4-dimethylaminophenyl)-1,4-pentadien-3-one]
inhibition at 100 µM [1]: 24 ± 0.6%
RM ± SD [2]: −0.14 ± 0.009
AAPH% Inhibition, 100 μM (±SD) [3]: 50 ± 0.5%
RA%, 100 μM, 60 min (±SD) [4]: 100 ± 8.7%

O=C(/C=C/c1ccc(C(F)(F)F)cc1)/C=C/c1ccc(C(F)(F)F)cc1 [Compound 1f, (1E,4E)-1,5-bis(4-(trifluoromethyl)phenyl)-1,4-pentadien-3-one]
inhibition at 100 µM [1]: 24 ± 1.4%
RM ± SD [2]: 0.57 ± 0.031
AAPH% Inhibition, 100 μM (±SD) [3]: 32 ± 1.4%
RA%, 100 μM, 20 min (±SD) [4]: 13 ± 0.8%
RA%, 100 μM, 60 min (±SD) [4]: 26 ± 0.9%

C(=C\c1ccccc1)/C1=NN(c2ccccc2)C(c2ccccc2)C1 (centres unmarked) [Compound 2a, (E)-1,5-Diphenyl-3-styryl-4,5-dihydro-1H-pyrazole]
inhibition at 100 µM [1]: 42 ± 2.4%
RM ± SD [2]: 1.00 ± 0.084
AAPH% Inhibition, 100 μM (±SD) [3]: 44 ± 0.7%
RA%, 100 μM, 60 min (±SD) [4]: 17 ± 1.2%

Fc1ccc(/C=C/C2=NN(c3ccccc3)C(c3ccc(F)cc3)C2)cc1 (centres unmarked) [Compound 2b]
inhibition at 100 µM [1]: 24 ± 1.9%
RM ± SD [2]: 0.78 ± 0.065
AAPH% Inhibition, 100 μM (±SD) [3]: 39 ± 0.3%
RA%, 100 μM, 20 min (±SD) [4]: 2 ± 0.1%
RA%, 100 μM, 60 min (±SD) [4]: 15 ± 0.6%

Clc1ccc(/C=C/C2=NN(c3ccccc3)C(c3ccc(Cl)cc3)C2)cc1 (centres unmarked) [Compound 2d]
IC50 [1]: 2.5 µM
RM ± SD [2]: 1.07 ± 0.067
AAPH% Inhibition, 100 μM (±SD) [3]: 75 ± 0.1%
RA%, 100 μM, 20 min (±SD) [4]: 6 ± 0.4%

CN(C)c1ccc(/C=C/C2=NN(c3ccccc3)C(c3ccc(N(C)C)cc3)C2)cc1 (centres unmarked) [Compound 2e]
IC50 [1]: 0.35 µM
RM ± SD [2]: 0.95 ± 0.092
AAPH% Inhibition, 100 μM (±SD) [3]: 78 ± 0.4%
RA%, 100 μM, 20 min (±SD) [4]: 24 ± 0.9%
RA%, 100 μM, 60 min (±SD) [4]: 45 ± 1%

FC(F)(F)c1ccc(/C=C/C2=NN(c3ccccc3)C(c3ccc(C(F)(F)F)cc3)C2)cc1 (centres unmarked) [Compound 2f]
inhibition at 100 µM [1]: 14 ± 0.8%
RM ± SD [2]: 1.31 ± 0.031
AAPH% Inhibition, 100 μM (±SD) [3]: 52 ± 2.5%
RA%, 100 μM, 20 min (±SD) [4]: 5 ± 0.2%

Brc1ccc(N2N=C(/C=C/c3ccccc3)CC2c2ccccc2)cc1 (centres unmarked) [Compound 3a, (E)-1-(4-bromophenyl)-5-phenyl-3-styryl-4,5-dihydro-1H-pyrazole]
inhibition at 100 µM [1]: 51 ± 2.2%
RM ± SD [2]: 1.11 ± 0.068
AAPH% Inhibition, 100 μM (±SD) [3]: 75 ± 1.4%
RA%, 100 μM, 20 min (±SD) [4]: 10 ± 0.3%
RA%, 100 μM, 60 min (±SD) [4]: 22 ± 0.9%

Fc1ccc(/C=C/C2=NN(c3ccc(Br)cc3)C(c3ccc(F)cc3)C2)cc1 (centres unmarked) [Compound 3b]
inhibition at 100 µM [1]: 17 ± 0.8%
RM ± SD [2]: 1.03 ± 0.057
AAPH% Inhibition, 100 μM (±SD) [3]: 63 ± 2.6%
RA%, 100 μM, 20 min (±SD) [4]: 2 ± 0.1%
RA%, 100 μM, 60 min (±SD) [4]: 6 ± 0.6%
